Test results reported in patent US8546381B2, “Bridged heterocyclic compounds and methods of use” (Medivation Technologies, Inc., priority 2008, dated 2013).

Tests used:
[1] = molecular target: T1, human recombinant serotonin (5-Hydroxytryptamine) 5-HT2C receptor (Homo sapiens, UniProt P28335); assay: Serotonin 5-HT2C radioligand binding ([3H]Mesulergine); settings: for inhibition at 1 µM: read-out: Serotonin 5-HT2C, inhibition of ligand binding (1 μM)
T1 construct: expressed in transfected cells; host or cells: CHO-K1 cells
T1 sequence (P28335 33-458): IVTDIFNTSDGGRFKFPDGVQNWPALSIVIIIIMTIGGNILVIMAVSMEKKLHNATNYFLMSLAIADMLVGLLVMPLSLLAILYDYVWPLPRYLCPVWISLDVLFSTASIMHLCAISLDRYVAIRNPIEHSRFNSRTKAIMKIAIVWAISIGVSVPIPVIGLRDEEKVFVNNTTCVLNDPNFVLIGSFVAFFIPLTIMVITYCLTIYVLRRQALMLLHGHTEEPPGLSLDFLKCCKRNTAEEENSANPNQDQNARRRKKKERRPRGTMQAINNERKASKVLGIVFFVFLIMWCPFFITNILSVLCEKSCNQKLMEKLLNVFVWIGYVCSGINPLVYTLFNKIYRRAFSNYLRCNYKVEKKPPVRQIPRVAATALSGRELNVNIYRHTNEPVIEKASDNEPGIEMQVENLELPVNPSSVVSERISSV
Experimental: To evaluate in radioligand binding assays the activity of compounds of the invention, human recombinant serotonin (5-Hydroxytryptamine) 5-HT2C receptor expressed in Chinese hamster ovary (CHO-K1) cells (Wolf, W. A. and Schutz, J. S., J. Neurochem. 69:1449, 1997) in a modified Tris-HCl buffer (50 mM Tris-HCl, pH 7.4, 0.1% Ascorbic Acid, 10 μM Pargyline) was used. Compounds of the invention were incubated with 1 nM [^3H]Mesulergine for 60 minutes at 25° C. Non-specific binding was estimated in the presence of 1 μM Mianserin. Receptor proteins were filtered and washed, the filters were then counted to determine [^3H]Mesulergine specifically bound. Compounds were screened at 1 μM or lower, using 1% DMSO as vehicle. Biochemical assay results are presented as the percent inhibition of specific binding in Table 4.

[2] = molecular target: T2, human recombinant histamine H2 receptor (Homo sapiens, UniProt P25021); assay: Histamine H2 radioligand binding ([125I]Aminopotentidine); settings: compound at 1 μM, inhibition of specific [125I]Aminopotentidine binding; for inhibition at 1 µM: read-out: Histamine Binding (1 μM) H2, Percentage Inhibition
T2 construct: expressed in transfected cells; host or cells: CHO-K1 cells
T2 sequence (P25021 whole entry): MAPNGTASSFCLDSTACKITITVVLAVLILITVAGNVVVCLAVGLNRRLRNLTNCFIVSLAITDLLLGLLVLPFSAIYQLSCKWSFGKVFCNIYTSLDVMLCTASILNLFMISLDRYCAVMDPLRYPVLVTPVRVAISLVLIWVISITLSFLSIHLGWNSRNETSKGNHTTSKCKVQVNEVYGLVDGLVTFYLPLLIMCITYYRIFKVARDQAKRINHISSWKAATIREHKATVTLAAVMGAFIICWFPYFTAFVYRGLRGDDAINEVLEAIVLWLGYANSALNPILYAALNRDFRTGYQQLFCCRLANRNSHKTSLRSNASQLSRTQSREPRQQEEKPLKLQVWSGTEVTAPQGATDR
Experimental: To evaluate in radioligand binding assays the activity of compounds of the invention, human recombinant histamine H2 receptor expressed in Chinese hamster ovary (CHO) K1 cells (Ruat, M., Proc. Natl. Acad. Sci. USA. 87(5):1658, 1990) in a 50 mM Phosphate buffer, pH 7.4 was used. Compounds of the invention were incubated with 0.1 nM [^125I]Aminopotentidine for 120 minutes at 25° C. Non-specific binding was estimated in the presence of 3 μM Tiotidine. Receptor proteins were filtered and washed, the filters were then counted to determine [^125I]Aminopotentidine specifically bound. Compounds were screened at 1 μM or lower, using 1% DMSO as vehicle. Biochemical assay results are presented as the percent inhibition of specific binding in Table 2.

[3] = molecular target: T3, human recombinant histamine H1 receptor (Homo sapiens, UniProt P35367); assay: Histamine H1 radioligand binding ([3H]Pyrilamine); settings: for inhibition at 1 µM / Histamine Binding (1 μM) H1, Percentage Inhibition: compound at 1 μM, inhibition of specific [3H]Pyrilamine binding; for inhibition at 1 µM: read-out: Histamine Binding (1 μM) H1, Percentage Inhibition
T3 construct: expressed in transfected cells; host or cells: CHO cells
T3 sequence (P35367 whole entry): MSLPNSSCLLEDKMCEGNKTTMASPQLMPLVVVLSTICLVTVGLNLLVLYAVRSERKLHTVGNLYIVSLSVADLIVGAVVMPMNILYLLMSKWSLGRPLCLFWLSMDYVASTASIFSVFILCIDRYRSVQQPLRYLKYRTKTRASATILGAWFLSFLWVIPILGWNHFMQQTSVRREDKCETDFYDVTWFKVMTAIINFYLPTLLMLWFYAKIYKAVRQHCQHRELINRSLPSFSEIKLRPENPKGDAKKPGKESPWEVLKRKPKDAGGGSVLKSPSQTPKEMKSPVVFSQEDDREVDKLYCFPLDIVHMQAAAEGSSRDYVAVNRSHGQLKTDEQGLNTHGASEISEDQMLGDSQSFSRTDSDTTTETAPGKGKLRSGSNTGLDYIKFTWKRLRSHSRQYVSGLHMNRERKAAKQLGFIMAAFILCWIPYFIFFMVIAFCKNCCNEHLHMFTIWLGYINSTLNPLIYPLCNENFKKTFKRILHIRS
Experimental: To evaluate in radioligand binding assays the activity of compounds of the invention, human recombinant histamine H1 receptor expressed in Chinese hamster ovary (CHO) cells (De Backer, M. D. et al., Biochem. Biophys. Res. Comm. 197(3):1601, 1993) in a modified Tris-HCl buffer (50 mM Tris-HCl, pH 7.4, 2 mM MgCl2, 100 mM NaCl, 250 mM Sucrose) was used. Compounds of the invention were incubated with 1.2 nM [^3H]Pyrilamine for 180 minutes at 25° C. Non-specific binding was estimated in the presence of 1 μM pyrilamine. Receptor proteins were filtered and washed, the filters were then counted to determine [^3H]Pyrilamine specifically bound. Compounds were screened at 1 μM or lower, using 1% DMSO as vehicle. Biochemical assay results are presented as the percent inhibition of specific binding in Table 2.

[4] = molecular target: T4, human recombinant adrenergic α1D receptor (Homo sapiens, UniProt P25100); assay: Adrenergic α1D radioligand binding ([3H]Prozosin); settings: for inhibition at 1 µM: read-out: Adrenergic α1D, inhibition of ligand binding (1 μM)
T4 construct: expressed in transfected cells; host or cells: HEK-293 cells
T4 sequence (P25100 1-572): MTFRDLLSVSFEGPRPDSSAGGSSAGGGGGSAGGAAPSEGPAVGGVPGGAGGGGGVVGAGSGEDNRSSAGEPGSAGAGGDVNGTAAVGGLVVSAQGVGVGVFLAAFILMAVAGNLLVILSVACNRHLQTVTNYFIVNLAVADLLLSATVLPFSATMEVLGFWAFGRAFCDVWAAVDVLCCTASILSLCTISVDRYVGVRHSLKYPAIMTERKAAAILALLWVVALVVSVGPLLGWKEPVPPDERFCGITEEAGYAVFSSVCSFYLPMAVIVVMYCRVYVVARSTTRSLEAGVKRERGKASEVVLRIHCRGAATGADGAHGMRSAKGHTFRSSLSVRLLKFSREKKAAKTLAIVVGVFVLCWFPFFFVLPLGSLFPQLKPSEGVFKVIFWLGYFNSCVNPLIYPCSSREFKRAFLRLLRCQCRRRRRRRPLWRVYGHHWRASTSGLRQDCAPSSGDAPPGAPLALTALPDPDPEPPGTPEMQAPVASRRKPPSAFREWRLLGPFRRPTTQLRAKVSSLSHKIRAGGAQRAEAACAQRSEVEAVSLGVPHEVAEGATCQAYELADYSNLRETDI
Experimental: To evaluate in radioligand binding assays the activity of compounds of the invention, human recombinant adrenergic α1D receptor expressed in human embryonic kidney (HEK-293) cells (Kenny, B. A. et al. Br. J. Pharmacol. 115(6):981, 1995) in a 50 mM Tris-HCl buffer, pH 7.4, was used. Compounds of invention were incubated with 0.6 nM [^3H]Prozosin for 60 minutes at 25° C. Non-specific binding was estimated in the presence of 10 μM phentolamine. Receptor proteins were filtered and washed, the filters were then counted to determine [^3H]Prozosin specifically bound. Compounds were screened at 1 μM or lower, using 1% DMSO as vehicle. Biochemical assay results are presented as the percent inhibition of specific binding in Table 3.

Compound | inhibition at 1 µM [1] [%] | inhibition at 1 µM [2] [%] | inhibition at 0.01 µM ([3]; compound at 10.0 nM, read-out: Histamine Binding H1, Percentage Inhibition (10.0 nM)) [%] | inhibition at 0.1 µM ([3]; compound at 0.1 μM, read-out: Histamine Binding H1, Percentage Inhibition (0.1 μM)) [%] | inhibition at 1 µM [3] [%] | inhibition at 0.03 µM ([4]; 0.03 μM, read-out: Adrenergic α1D, inhibition of ligand binding (0.03 μM)) [%] | inhibition at 0.3 µM ([4]; 0.3 μM, read-out: Adrenergic α1D, inhibition of ligand binding (0.3 μM)) [%] | inhibition at 1 µM [4] [%] | Serotonin 5-HT2C, inhibition of ligand binding (1 μM) ([1]; 1 µM) [%] | Histamine Binding (1 μM) H2, Percentage Inhibition ([2]; 1 µM) [%] | Histamine Binding (1 μM) H1, Percentage Inhibition [3] [%] | Adrenergic α1D, inhibition of ligand binding (1 μM) [4] [%]
Cc1ccc2c(c1)c1c(n2CCc2ccccc2)CC2CCC1N2C (centres unmarked) [Compound 2] | 79 | 43 | 42 | 85 | 99 | 44 | 85 | 94 | – | – | – | –
CN1C2CCC1c1c(n(CCC(=O)N3CCNC(=O)C3)c3ccc(Cl)cc13)C2 (centres unmarked) [Compound 3] | 2 | 2 | – | – | 12 | – | – | 6 | – | – | – | –
CN1C2CCC1c1c(n(CCC(=O)N3CCCC3)c3ccc(Cl)cc13)C2 (centres unmarked) [Compound 5] | -9 | -9 | – | – | 32 | – | – | 21 | – | – | – | –
CC(=O)N1CCN(C(=O)CCn2c3c(c4cc(Cl)ccc42)C2CCC(C3)N2C)CC1 (centres unmarked) [Compound 8] | -6 | 9 | – | – | 16 | – | – | 8 | – | – | – | –
CN1C2CCC1c1c(n(CCC(=O)N3CCNCC3)c3ccc(Cl)cc13)C2 (centres unmarked) [Compound 9] | 5 | 3 | – | – | 6 | – | – | 9 | – | – | – | –
CN1C2CCC1c1c(n(CCC(=O)N3CC[S+]([O-])CC3)c3ccc(Cl)cc13)C2 (centres unmarked) [Compound 10] | 4 | 1 | – | – | 7 | – | – | 7 | – | – | – | –
CN1C2CCC1c1c(n(CCC(=O)N3CCS(=O)(=O)CC3)c3ccc(Cl)cc13)C2 (centres unmarked) [Compound 11] | 13 | 9 | – | – | 2 | – | – | -11 | – | – | – | –
CN1C2CCC1c1c(n(CCC(=O)N3CCSCC3)c3ccc(Cl)cc13)C2 (centres unmarked) [Compound 12] | 26 | -2 | – | – | 29 | – | – | 3 | – | – | – | –
CN1C2CCC1c1c(n(CCC(=O)N3CCOCC3)c3ccc(Cl)cc13)C2 (centres unmarked) [Compound 13] | 8 | -2 | – | – | 28 | – | – | 8 | – | – | – | –
Cc1ccc2c(c1)c1c(n2CCc2ccc(C)nc2)CC2CCC1N2C (centres unmarked) [Compound 32] | -3 | 13 | – | – | 94 | – | – | 53 | – | – | – | –
CN1C2CCC1c1c(n(CCc3ccc(Cl)cc3)c3ccc(F)cc13)C2 (centres unmarked) [Compound 33] | 64 | 18 | – | – | 86 | – | – | 36 | – | – | – | –
CN1C2CCC1c1c(n(CCc3ccc(C(F)(F)F)nc3)c3ccc(Cl)cc13)C2 (centres unmarked) [Compound 34] | 27 | 12 | – | – | 52 | – | – | 61 | 28.0 | 24.0 | 55.0 | 56.0
CN1C2CCC1c1c(n(CCc3ccc(F)cc3)c3ccc(F)cc13)C2 (centres unmarked) [Compound 35] | 86 | 27 | – | – | 93 | – | – | 78 | – | – | – | –
CN1C2CCC1c1c(n(CCCc3ccc(C(F)(F)F)nc3)c3ccc(Cl)cc13)C2 (centres unmarked) [Compound 37] | 26 | 7 | – | – | 78 | – | – | 12 | – | – | – | –
Cc1ccc(CCCn2c3c(c4cc(Cl)ccc42)C2CCC(C3)N2C)cn1 (centres unmarked) [Compound 38] | 23 | 9 | – | – | 96 | – | – | 50 | – | – | – | –
CN1C2CCC1c1c(n(CCCc3ccc(Cl)cc3)c3ccc(Cl)cc13)C2 (centres unmarked) [Compound 39] | 94 | 86 | – | – | 91 | – | – | 11 | – | – | – | –
Cc1ccc(C(O)Cn2c3c(c4cc(Cl)ccc42)C2CCC(C3)N2C)cn1 (centres unmarked) [Compound 52] | 11 | 2 | – | – | 91 | – | – | 33 | – | – | – | –
Cc1ccc2c(c1)c1c(n2CC(C)(O)c2ccc(Cl)cc2)CC2CCC1N2C (centres unmarked) [Compound 54] | 93 | 50 | – | – | 63 | – | – | 25 | – | – | – | –
Cc1ccc2c(c1)c1c(n2CCc2ccccc2)CC2CCCC1N2C (centres unmarked) [Compound 56] | 36 | 16 | – | – | 86 | – | – | 65 | – | – | – | –
CN1C2CCC1c1c(n(CCc3ccc(F)cc3)c3ccc(Cl)cc13)C2 (centres unmarked) [Compound 57] | 88 | 37 | – | – | 96 | – | – | 69 | – | – | – | –
CN1C2CCC1c1c(n(CCc3ccc(Cl)cc3)c3ccc(Cl)cc13)C2 (centres unmarked) [Compound 58] | 84 | 52 | – | – | 98 | – | – | 74 | – | – | – | –
CN1C2CCC1c1c(n(CC(=O)N3CCOCC3)c3ccc(Cl)cc13)C2 (centres unmarked) [Compound 59, 2-(2-chloro-11-methyl-5,6,7,8,9,10-Hexahydro-7,10-iminocyclohept[b]indol-5-yl)-1-morpholinoethanone] | 8 | 15 | – | – | 7 | – | – | 2 | – | – | – | –
Cc1ccc2c(c1)c1c(n2CCc2ccc(C(F)(F)F)nc2)CC2CCC1N2C (centres unmarked) [Compound 71] | -0.259 | – | – | – | 33 | – | – | 62 | – | – | 46.0 | 63.0
